Reference: patent US10882860B2, “Treatment of osteoarthritis” (Samumed, LLC, priority 2015, dated 2021)

System: subjects with moderately to severely symptomatic knee OA
Assay: Initial clinical study (first cohort, single IA injection)
Assay type: in vivo, human
Design: Change in cartilage thickness: unit not given here
Description: Twenty-one subjects were enrolled in the first cohort of a clinical trial for the treatment of osteoarthritis. All subjects completed a minimum of 12 weeks of follow-up after treatment. This study was a first-in-human, multicenter, placebo-controlled, single-dose, dose-escalation safety study in subjects suffering from moderately to severely symptomatic knee OA. Subjects were treated with a single ultrasound-guided intra-articular injection of a suspension of a non-stoichiometric hydrate of Form I having between 1% and about 20% by weight water or placebo.
A single-use injectable composition containing the compound of Formula (I) suspended in a 0.5% sodium carboxymethylcellulose and 0.05% polysorbate 80 in 10 mM phosphate buffered saline solution, pH 7.4, was prepared. For this study, a dosage of 0.03-0.230 mg of the compound of Formula (I) was administered per 2 mL injection.
Subjects were evaluated using the following primary and secondary assessments:
1. Evaluation of the safety and tolerability of the therapeutic composition administered by intra-articular injection into the target knee joint of moderately to severely symptomatic osteoarthritis (OA) subjects. This included:
a) monitoring for treatment-emergent adverse events (AEs);
b) assessing bone loss by measuring bone biomarkers (cartilage oligomeric matrix protein [COMP], N-terminal propeptides of procollagen type I [PINP], and β-C-terminal telopeptide [β-CTX]) at Weeks 4 and 12 by computed tomography (CT) of both knee joints and at Week 12 after study medication injection compared to baseline; and
c) assessing bone marrow edema by magnetic resonance imaging (MRI) at Week 12 compared to baseline.
2. Assessment of the pharmacokinetic (PK) behavior of the compound of Formula (I) under the conditions of this study at Days 1, 2, 4, and 12.
Estimation of clinical responses to treatment with the therapeutic composition, including:
a) change from baseline in pain visual analog scale (VAS) score assessed at Weeks 1, 2, 4, 8, and 12;
b) change from baseline in the Western Ontario and McMaster Universities Arthritis Index (WOMAC) assessed at Weeks 1, 2, 4, 8, and 12;
c) change from baseline OA pain as assessed by the WOMAC pain subscale at Weeks 1, 2, 4, 8, and 12;
d) change from baseline OA as assessed by the physician global assessment of disease activity at Weeks 1, 2, 4, 8, and 12;
e) change from baseline in total cartilage volume and thickness in the compartments of the target knee joint as documented by Mill at Week 12;
f) changes from baseline in anabolic or catabolic biomarkers indicative of cartilage synthesis or degradation (cartilage oligomeric matrix protein [COMP], N-terminal propeptides of procollagen type I [PINP], and β-C-terminal telopeptide [(3-CTX]) at Weeks 4 and 12;
g) change from baseline in plasma levels of cytokines related to inflammation (interleukin [IL] 1b, IL6, IL8, tumor necrosis factor (TNF), and interferon-alpha [IFNα]) at Weeks 4 and 12; and
h) change from baseline in bone marrow edema as documented by Mill scan of the target knee at baseline and at Week 12.

[1] = subject Treatment 1, Week 12 vs baseline
[2] = subject Treatment 2, Week 12 vs baseline
[3] = subject Treatment 3, Week 12 vs baseline
[4] = subject Treatment 4, Week 12 vs baseline

For CC(C)CC(=O)Nc1cncc(-c2ccc3[nH]nc(-c4nc5c(-c6cccc(F)c6)cncc5[nH]4)c3c2)c1 [compound of Formula (I)], the “Change in WOMAC score” value [1] was −56, the “Change in cartilage thickness” value [1] was 1.2 and the “Week 12 cartilage thickness (mm)” value (subject Treatment 1, baseline 14.01) was 15.21 mm. For the same compound, the “Week 12 WOMAC score” value (subject Treatment 1, baseline 56) was 0, the “Change in WOMAC score” value [2] was −30 and the “Change in cartilage thickness” value [2] was 1.2. For the same compound, the “Week 12 cartilage thickness (mm)” value (subject Treatment 2, baseline 12.12) was 13.32 mm, the “Week 12 WOMAC score” value (subject Treatment 2, baseline 51) was 21 and the “Change in WOMAC score” value [3] was −27. For the same compound, the “Change in cartilage thickness” value [3] was 1.3, the “Week 12 cartilage thickness (mm)” value (subject Treatment 3, baseline 13.22) was 14.52 mm and the “Week 12 WOMAC score” value (subject Treatment 3, baseline 59) was 32. The “Change in WOMAC score” value [4] was −38, the “Change in cartilage thickness” value [4] was 1.44 and the “Week 12 cartilage thickness (mm)” value (subject Treatment 4, baseline 9.89) was 11.33 mm. For the same compound, the “Week 12 WOMAC score” value (subject Treatment 4, baseline 61) was 23.
